Source: PMC3485629, “Bioactivity comparison of extracts from various parts of common and tartary buckwheats: evaluation of the antioxidant- and angiotensin-converting enzyme inhibitory activities” (Chemistry Central Journal, 2012)

Biological target: T1, Angiotensin-converting enzymes from porcine kidneys (EC 3.4.15.1) (Sus scrofa, UniProt F1RRW5)
T1 construct: gene ACE; native enzyme from porcine kidney (Sigma), lyophilized
T1 sequence (F1RRW5 34-1309): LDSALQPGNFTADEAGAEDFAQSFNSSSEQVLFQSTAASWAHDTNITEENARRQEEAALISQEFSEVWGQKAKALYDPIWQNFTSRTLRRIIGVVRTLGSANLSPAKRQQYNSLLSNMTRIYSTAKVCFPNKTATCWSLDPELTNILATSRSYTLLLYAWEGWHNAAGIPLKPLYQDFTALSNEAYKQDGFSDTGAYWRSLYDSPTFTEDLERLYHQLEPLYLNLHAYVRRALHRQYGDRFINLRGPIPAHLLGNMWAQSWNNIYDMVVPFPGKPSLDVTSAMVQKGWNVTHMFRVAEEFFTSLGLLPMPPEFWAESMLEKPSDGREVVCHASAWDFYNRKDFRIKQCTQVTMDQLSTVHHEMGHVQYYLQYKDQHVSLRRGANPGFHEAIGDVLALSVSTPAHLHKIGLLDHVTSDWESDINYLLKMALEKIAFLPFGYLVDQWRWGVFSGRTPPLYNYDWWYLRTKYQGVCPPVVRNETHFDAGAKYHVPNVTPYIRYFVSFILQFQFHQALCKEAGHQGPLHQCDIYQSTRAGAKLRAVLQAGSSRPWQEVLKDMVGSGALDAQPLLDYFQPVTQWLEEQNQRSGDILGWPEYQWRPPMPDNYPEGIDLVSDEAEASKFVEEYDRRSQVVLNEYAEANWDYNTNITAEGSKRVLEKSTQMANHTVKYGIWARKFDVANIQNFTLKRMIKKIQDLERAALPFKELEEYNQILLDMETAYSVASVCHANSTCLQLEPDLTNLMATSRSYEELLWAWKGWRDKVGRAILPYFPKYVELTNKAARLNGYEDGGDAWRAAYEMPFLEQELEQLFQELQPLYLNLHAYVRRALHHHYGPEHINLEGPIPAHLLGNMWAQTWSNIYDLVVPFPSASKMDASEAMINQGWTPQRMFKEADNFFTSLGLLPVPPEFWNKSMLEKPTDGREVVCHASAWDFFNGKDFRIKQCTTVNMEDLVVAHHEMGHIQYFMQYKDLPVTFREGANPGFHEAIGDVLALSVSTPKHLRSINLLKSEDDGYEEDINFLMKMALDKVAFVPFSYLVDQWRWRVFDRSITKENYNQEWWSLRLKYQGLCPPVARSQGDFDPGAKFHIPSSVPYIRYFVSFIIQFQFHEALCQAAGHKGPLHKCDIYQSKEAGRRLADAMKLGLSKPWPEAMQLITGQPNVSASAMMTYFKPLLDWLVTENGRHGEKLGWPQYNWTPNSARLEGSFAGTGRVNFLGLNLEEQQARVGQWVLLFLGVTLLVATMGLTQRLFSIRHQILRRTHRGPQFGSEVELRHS
Assay: microplate fluorometric assay, OPA detection of His-Leu
Assay type: biochemical
Conditions: read-out: IC50 (μg mL^-1) (converted)

IC50: 129 µM
Structure (SMILES): O=c1c(O)c(-c2ccc(O)c(O)c2)oc2cc(O)cc(O)c12 [quercetin]
